Experimental findings from patent US20180092908A1, “SMALL MOLECULE OXIDIZERS OF PDI AND THEIR USE” (THE TRUSTEES OF COLUMBIA UNIVERSITY IN THE CITY OF NEW YORK, priority 2015, published 2018) are described below.

The term EC50 denotes the concentration needed to bring the measured effect to its halfway point. As a reminder, the Kd is the concentration at which binding is half-saturated.

Molecules are shown by their SMILES. Where two headings read alike, the source gives them in different places.

One data set concerns PC12 mHTT^Q103 cells. As to the kind of experiment: Rescue of PC12 cells from mHTT^Q103 induced cell death (Alamar blue viability). It counts as cell-based. The note with it: Rattus norvegicus. Background: The colour change of resazurin is a common sign of viable cells or microbes.
For data set [1], the target named is T1, human catalytic PDI A1 a domain (PDIa) (Homo sapiens, UniProt P07237).
T1 construct: made in house; host or cells: Escherichia coli BL21-Gold (DE3)
As to the kind of experiment: Isothermal titration calorimetry (ITC) binding to PDIa. (In general: Isothermal titration calorimetry measures the heat released or taken up as one component is titrated into another.)

Data set [2] is described as follows: Mouse microsome stability assay. In kind it is in vitro ADME. As to conditions: for half-life at 0.5 μM: mouse, liver microsomes, pH 7.4, mouse liver microsomes. The procedure: At 0, 5, 15, 30 and 45 minute intervals, an aliquot was taken and quenched with acetonitrile (ACN) containing internal standard. No-cofactor controls at 45 minutes were prepared. Following completion of the experimentation, the samples were analyzed by LC-MS/MS. […] C=initial×exp (−k×t). Intrinsic clearance (CLint) was calculated as liver clearance from the half-life using the following equation: CLint=k×(ml incubation/0.5 mg protein)×(52.5 mg protein/g liver). Results were reported as peak area ratios of analyte to internal standard. The intrinsic clearance (CLint) was determined from the first order elimination constant by non-linear regression. The microsome stability assay, plasma stability assay, and plasma protein binding assay were each performed by Alliance Pharma, Inc. (Malvern, Pa.).
For orientation: Microsomes from liver hold many membrane-bound enzymes, among them those of drug oxidation.

The next data set can be described thus: Solubility. The note with it: DMSO, Table 5.
The mark [3] stands for this setting: mouse liver microsomes, compound 0.5 μM.

T1 sequence (P07237 with tags, fused parts or gaps): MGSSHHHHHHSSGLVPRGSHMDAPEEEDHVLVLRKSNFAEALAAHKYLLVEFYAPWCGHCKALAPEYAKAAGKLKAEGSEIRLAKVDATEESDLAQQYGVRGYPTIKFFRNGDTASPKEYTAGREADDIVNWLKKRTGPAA

`O=C(C1CC1)N1CCN(Cn2sc3ccccc3c2=O)CC1` [LOC14, 2-((4-(cyclopropanecarbonyl)piperazin-1-yl)methyl)benzo[d]isothiazol-3(2H)-one]: the EC50 came to 500 nM in the data set on PC12 mHTT^Q103 cells (PC-12, 48 h, read-out: EC50, rescue of PC12 mHTT^Q103 cells) and 102 nM in the data set on PC12 mHTT^Q103 cells (PC-12, read-out: Cell Viability Assay EC50). Besides, in data set [1] (40 μM PDIa pre-treated overnight with 200 μM 16F16), the “binding affinity to PDIa with 16F16 pre-treatment” value is recorded as “reduced”. Besides, the Kd in data set [1] (PDIa, Table 5, read-out: ITC Assay KD) was determined as 113 nM; in data set [1] (reduced PDIa 40 μM, compound 400 μM, 25° C., read-out: dissociation constant (Kd)) it was 61.7 ± 5.6 nM. Also, the intrinsic clearance value entry in data set [2] (mouse liver microsomes) is “less than 0.5 ml/min/g”. Besides, the “Elimination rate constant (k)” value in data set [2] (setting [3]) worked out at 0.0016. Further, the “Intrinsic Clearance (CLint), mL/min/g liver” value in data set [2] (setting [3]) amounted to 0.17 mL/min/g liver. The half-life at 0.5 μM was 7.31 h in data set [2] (compound 0.5 μM, read-out: Half-life (t1/2)) and over 1.5 h in data set [2] (read-out: half-life). The “Solubility in DMSO” value in “Solubility” came to 100 mM in DMSO.
